Earlier results as cited in patent US20090082738A1, “Natural Anti-Inflammatory Agents for Reducing Pain” (priority 2007, published 2009).

Assays:
[1] = test system: moderate or severe knee arthritis population; conditions: 1500 mg of glucosamine

| SMILES | inhibition of cyclooxygenase (COX) (cyclooxygenase (COX)) | clinical efficacy compared with Celebrex [1] |
| --- | --- | --- |
| C/C=C(/C=O)[C@@H](CC=O)CC(=O)OCCc1ccc(O)cc1 [Oleocanthal] | non-selective inhibitor of cyclooxygenase (COX) |  |
| N[C@H]1C(O)O[C@H](CO)[C@@H](O)[C@@H]1O (some centres unmarked) [glucosamine] |  | superior to the prescription medication Celebrex |
